# Experiments:
# Format in all cases: cell-based, human
# hMSCs [1] = test: Adipogenic differentiation of hMSCs, Oil Red O staining; conditions: for differentiation of hMSCs into mature adipocytes: cAMP analog combined with dexamethasone; for cell fate commitment osteogenic vs adipogenic: compound combined with the OS media; for adipogenic differentiation of hMSCs, cAMP-raising compounds: compound treatment, especially in the presence of dexamethasone (FIG. 7b)
# Protocol: Cells were rinsed with PBS twice, fixed in 10% formalin solution for 20 minutes, rinsed with PBS twice and dH2O once, washed with propylene glycol for 5 minutes, and stained with Oil red in propylene glycol (12722A, Newcomer Supply) for 30 minutes. Cells were then washed with 85% propylene glycol for 5 minutes, rinsed with dH2O 3 times and preserved in 50% glycerol.
# (§1) 8-CPT-cAMP, Na (cat# 116812), 5-Iodotubercidin (cat# 407900), Prostaglandin E2 (PGE2, cat# 538904), SB 202190 (cat# 559388) and U0126 (cat# 662005) were purchased from Calbiochem; N6,2′-O-Dibutyryl-cAMP (cat# D0260-5MG), forskolin (cat# F6886), ascorbic acid 2-phosphate (cat# 49752-10G), (3-glycerophosphate (G-6251), dexamethasone (D8893), 3-isobutyl-1-methylxanthine (IBMX, 15879) and Insulin (19278) were purchased from Sigma/Aldrich/Fluka.
# Bone cell maturation is accompanied by extracellular matrix (ECM) mineralization (John Bilezikian et al., Principles of bone biology, Vol 1, 2nd edn: Academic Press) (2002)). To examine whether the osteogenic differentiation of hMSCs induced by the hit siRNAs can further proceed to the maturation stage, hit siRNA treated cells were cultured for 20 days. […] These observations are consistent with the conclusion that the targeted genes of the ten effective hit siRNAs not only play inhibitory roles in osteogenic specification of hMSCs, but also in bone cell maturation. […] Furthermore, in osteoporotic patients, the number of adipocytes was increased in the marrow, implying a change of cell fate disposition from osteoblast lineage to adipocyte lineage (Justesen, J. et al., Biogerontology 2:165-171 (2001); Meunier, P. et al., Clin Orthop Relat Res 80:147-154 (1971)). We therefore examined the effect of our hit siRNAs on adipogenic differentiation of hMSCs by combined treatment with an adipogenic inducing cocktail (100 μg/ml BMX, 1 μM DEX and 10 μg/ml insulin).
# (§2) Since the targeted genes are all positively involved in intracellular cAMP signaling, we tested the effect of two compounds of opposing function on cAMP production on osteogenic differentiation of hMSCs, ADK inhibitor 5-iodotubercidin and ADCY activator forskolin (Cottam, H. B. et al., J Med Chem 36:3424-3430 (1993); de Souza, N. J. et al., Med Res Rev 3:201-219 (1983)). […] ATP has been shown as a ligand for P2RY11 receptor (Communi et al., 1997). […] The present observations are consistent with the conclusion that […] in hMSCs, and vice versa.
# hMSCs [2] = test: Compound treatment on OS-induced osteogenic differentiation of hMSCs (ALP / alizarin red staining); conditions: for osteogenic differentiation of hMSCs combined with OS treatment: compound plus OS media
# Protocol: as §1, §2
# hMSCs [3] = test: Alizarin red staining for calcium phosphate deposits (ECM mineralization, bone cell maturation); conditions: OS treatment started three days after siRNA transfection and continued for 9 days (3+9OS), vs siCon
compound,measurement,setting,value
Nc1ncnc2c1c(I)cn2[C@@H]1O[C@H](CO)[C@@H](O)[C@H]1O [5-iodotubercidin],adipogenic differentiation of hMSCs under compound,"hMSCs [1]; compound plus adipogenic inducing media, oil red o staining (FIG. 7a j-l)",inhibited the adipogenic differentiation of hMSCs in a dose dependent manner
same,osteogenic differentiation of hMSCs combined with OS treatment,hMSCs [2],significantly enhanced the osteogenic differentiation of hMSCs
Nc1ncnc2c1nc(Sc1ccc(Cl)cc1)n2[C@@H]1O[C@@H]2COP(=O)(O)O[C@H]2[C@H]1O [8-CPT-cAMP],differentiation of hMSCs into mature adipocytes,hMSCs [1],sufficient to differentiate hMSCs into mature adipocytes
same,cell fate commitment osteogenic vs adipogenic,hMSCs [1],could switch cell fate commitment from osteogenic to adipogenic
same,"adipogenic differentiation of hMSCs, cAMP-raising compounds",hMSCs [1],promoted hMSCs to undergo adipogenic differentiation
Nc1ncnc2c1ncn2[C@@H]1O[C@H](COP(=O)(O)OP(=O)(O)OP(=O)(O)O)[C@@H](O)[C@H]1O [ATP],number of cells undergoing adipogenic differentiation,hMSCs [1]; ATP treatment of OS-treated hMSCs,slightly increases
same,siP2RY11 and siSLC12a2 induced osteogenesis in combination with OS,"hMSCs [2]; OS and ATP added on third day after siRNA transfection, continued for a week, ALP staining",dosage-dependent inhibitory effect
same,osteogenic differentiation of hMSCs combined with OS treatment,hMSCs [2],inhibited the OS-induced osteogenesis of hMSCs
"CCCC(=O)Nc1ncnc2c1ncn2[C@@H]1O[C@@H]2COP(=O)(O)O[C@H]2[C@H]1OC(=O)CCC [DB-cAMP, N6,2′-dibutyryl-cAMP]",differentiation of hMSCs into mature adipocytes,hMSCs [1],sufficient to differentiate hMSCs into mature adipocytes
same,"adipogenic differentiation of hMSCs, cAMP-raising compounds",hMSCs [1],promoted hMSCs to undergo adipogenic differentiation
"CC(C)Cn1c(=O)n(C)c(=O)c2[nH]cnc21 [IBMX, 3-isobutyl-1-methylxanthine]",cell fate commitment osteogenic vs adipogenic,hMSCs [1],could switch cell fate determination from osteogenic to adipogenic differentiation
same,"adipogenic differentiation of hMSCs, cAMP-raising compounds",hMSCs [1],promoted hMSCs to undergo adipogenic differentiation
COc1cccc(-c2cc(=O)c3ccccc3o2)c1N [PD98059],osteogenic differentiation of hMSCs combined with OS treatment,hMSCs [2],inhibited the osteogenic inducing effect of OS
"CCCCC[C@H](O)/C=C/[C@H]1[C@H](O)CC(=O)[C@@H]1C/C=C\CCCC(=O)O [PGE2, Prostaglandin E2]",cell fate commitment osteogenic vs adipogenic,hMSCs [1],could switch cell fate determination from osteogenic to adipogenic differentiation
Oc1ccc(-c2nc(-c3ccncc3)c(-c3ccc(F)cc3)[nH]2)cc1 [SB202190],osteogenic differentiation of hMSCs combined with OS treatment,hMSCs [2],inhibited the osteogenic inducing effect of OS
"siADCY8: siRNA GGAGAUCAACAAGCAUUCA targeting adenylate cyclase 8 (listed as RNA, chemistry not given here)",intensity of alizarin red staining,hMSCs [3],weak enhancement
"siBCL212: siRNA CCCAGGUCUCCGAUGAACU targeting BCL2-like 2 (listed as RNA, chemistry not given here)",intensity of alizarin red staining,hMSCs [3],modest enhancement
"siBIRC4: siRNA UGUGCUACACAGUCAUUAC targeting baculoviral IAP repeat-containing 4 (listed as RNA, chemistry not given here)",intensity of alizarin red staining,hMSCs [3],weak enhancement
"siGBDR1: siRNA CCCGAAAACAUUGCUAGCA targeting putative glialblastoma cell differentiation-related (listed as RNA, chemistry not given here)",intensity of alizarin red staining,hMSCs [3],dramatically enhanced
"siKCNT1: siRNA UGCGAGCCAAGAUGGACAA targeting potassium channel, subfamily T, member 1 (listed as RNA, chemistry not given here)",intensity of alizarin red staining,hMSCs [3],dramatically enhanced
"siTBX3: siRNA UGCCAAAGAGGAUGUACAU targeting T-box 3 (ulnar mammary syndrome) (listed as RNA, further chemistry not given here)",intensity of alizarin red staining,hMSCs [3],no significant effect

# From patent US20100184113A1, “CONTROLLING OSTEOGENESIS BY INHIBITION OF OSTEOGENIC SUPPRESSORS” (The Scripps Research Institute Office of Patent Counsel, priority 2006, published 2010)
